Earlier results as cited in US7361766B2, “Bicyclic heterocycles as cannabinoid receptor modulators” (Bristol-Myers Squibb Company, priority 2005, dated 2008).
Like-named read-outs stand apart in the source and are kept apart here.

What was measured:
[1] = system: CB-1; settings: multiple species including humans
[2] = chronic administration for two weeks
[3] = human subjects, 16 week trial period

| Compound | body weight [1] | food intake [1] | body weight [2] | body weight [3] |
| --- | --- | --- | --- | --- |
| CCCCCc1cc(O)c2c(c1)OC(C)(C)[C@@H]1CCC(C)=C[C@@H]21 [Delta-9 THC, Delta-9-tetrahydrocannabinol] | weight gain | increased food intake |  |  |
| Cc1c(C(=O)NN2CCCCC2)nn(-c2ccc(Cl)cc2Cl)c1-c1ccc(I)cc1 [AM-251] |  |  | substantial body weight reduction |  |
| Cc1c(C(=O)NN2CCCCC2)nn(-c2ccc(Cl)cc2Cl)c1-c1ccc(Cl)cc1 [SR-141716] |  |  |  | dose-dependently reduced body weight |
| CCCCC/C=C\C/C=C\C/C=C\C/C=C\CCCC(=O)NCCO [anandamide] | weight gain | increased food intake |  |  |
